# Experimental data taken from ChEMBL document CHEMBL5653615 (J Biol Chem, 2013).
# Legend:
# [1] = target: Fibroblast growth factor receptor 2 (Homo sapiens) (UniProt P21802); experiment: Inhibition of human FGFR2 at 18.6 nM by HotSpot assay relative to control
# [2] = target: Protein kinase C beta type (Homo sapiens) (UniProt P05771); experiment: Inhibition of human PKCb2 at 18.6 nM by HotSpot assay relative to control
# [3] = target: T1, Serine/threonine-protein kinase DCLK2 (Homo sapiens) (UniProt Q8N568); experiment: Inhibition of human DCAMKL2 at 18.6 nM by HotSpot assay relative to control
# T1 sequence (whole entry): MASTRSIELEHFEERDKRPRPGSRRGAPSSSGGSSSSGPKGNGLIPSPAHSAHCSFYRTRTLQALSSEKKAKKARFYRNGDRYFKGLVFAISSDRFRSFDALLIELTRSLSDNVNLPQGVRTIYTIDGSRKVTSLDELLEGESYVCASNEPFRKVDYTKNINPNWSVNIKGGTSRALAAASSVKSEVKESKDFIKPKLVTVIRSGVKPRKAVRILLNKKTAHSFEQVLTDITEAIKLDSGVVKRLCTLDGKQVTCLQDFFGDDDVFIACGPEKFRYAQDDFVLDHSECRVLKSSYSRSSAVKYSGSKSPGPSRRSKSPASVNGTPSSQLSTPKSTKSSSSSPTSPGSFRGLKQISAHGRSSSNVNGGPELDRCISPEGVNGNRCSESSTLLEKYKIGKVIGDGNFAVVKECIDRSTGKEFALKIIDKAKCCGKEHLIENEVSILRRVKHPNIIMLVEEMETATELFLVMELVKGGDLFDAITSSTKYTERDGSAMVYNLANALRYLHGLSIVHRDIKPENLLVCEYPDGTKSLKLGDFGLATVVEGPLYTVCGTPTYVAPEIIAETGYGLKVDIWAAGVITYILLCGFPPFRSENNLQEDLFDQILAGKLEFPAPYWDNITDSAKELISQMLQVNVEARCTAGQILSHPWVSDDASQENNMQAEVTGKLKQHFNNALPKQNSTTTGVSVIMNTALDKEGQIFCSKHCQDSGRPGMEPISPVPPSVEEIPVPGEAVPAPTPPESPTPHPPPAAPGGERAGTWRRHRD
# [4] = target: T2, Dual specificity tyrosine-phosphorylation-regulated kinase 3 (Homo sapiens) (UniProt O43781); experiment: Inhibition of human DYRK3 at 18.6 nM by HotSpot assay relative to control
# T2 sequence (whole entry): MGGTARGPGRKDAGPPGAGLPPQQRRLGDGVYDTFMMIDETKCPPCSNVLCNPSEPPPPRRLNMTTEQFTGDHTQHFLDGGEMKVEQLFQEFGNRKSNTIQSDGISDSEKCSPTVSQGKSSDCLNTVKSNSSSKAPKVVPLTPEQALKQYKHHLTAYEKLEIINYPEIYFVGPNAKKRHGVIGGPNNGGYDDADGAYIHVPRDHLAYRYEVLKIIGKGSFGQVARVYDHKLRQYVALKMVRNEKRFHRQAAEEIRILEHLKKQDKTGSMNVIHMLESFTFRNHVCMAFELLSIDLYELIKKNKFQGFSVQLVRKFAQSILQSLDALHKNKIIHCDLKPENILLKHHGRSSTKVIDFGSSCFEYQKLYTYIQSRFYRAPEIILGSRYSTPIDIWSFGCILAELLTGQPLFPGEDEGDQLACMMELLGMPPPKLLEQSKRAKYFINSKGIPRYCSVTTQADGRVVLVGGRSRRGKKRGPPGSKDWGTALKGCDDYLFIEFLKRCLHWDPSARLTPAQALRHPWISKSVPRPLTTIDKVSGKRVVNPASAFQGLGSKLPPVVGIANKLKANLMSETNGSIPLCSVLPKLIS
# [5] = target: Proto-oncogene tyrosine-protein kinase ROS (Homo sapiens) (UniProt P08922); experiment: Inhibition of human ROS1 at 18.6 nM by HotSpot assay relative to control
# Proto-oncogene tyrosine-protein kinase ROS (Homo sapiens), sequence (P08922 whole entry): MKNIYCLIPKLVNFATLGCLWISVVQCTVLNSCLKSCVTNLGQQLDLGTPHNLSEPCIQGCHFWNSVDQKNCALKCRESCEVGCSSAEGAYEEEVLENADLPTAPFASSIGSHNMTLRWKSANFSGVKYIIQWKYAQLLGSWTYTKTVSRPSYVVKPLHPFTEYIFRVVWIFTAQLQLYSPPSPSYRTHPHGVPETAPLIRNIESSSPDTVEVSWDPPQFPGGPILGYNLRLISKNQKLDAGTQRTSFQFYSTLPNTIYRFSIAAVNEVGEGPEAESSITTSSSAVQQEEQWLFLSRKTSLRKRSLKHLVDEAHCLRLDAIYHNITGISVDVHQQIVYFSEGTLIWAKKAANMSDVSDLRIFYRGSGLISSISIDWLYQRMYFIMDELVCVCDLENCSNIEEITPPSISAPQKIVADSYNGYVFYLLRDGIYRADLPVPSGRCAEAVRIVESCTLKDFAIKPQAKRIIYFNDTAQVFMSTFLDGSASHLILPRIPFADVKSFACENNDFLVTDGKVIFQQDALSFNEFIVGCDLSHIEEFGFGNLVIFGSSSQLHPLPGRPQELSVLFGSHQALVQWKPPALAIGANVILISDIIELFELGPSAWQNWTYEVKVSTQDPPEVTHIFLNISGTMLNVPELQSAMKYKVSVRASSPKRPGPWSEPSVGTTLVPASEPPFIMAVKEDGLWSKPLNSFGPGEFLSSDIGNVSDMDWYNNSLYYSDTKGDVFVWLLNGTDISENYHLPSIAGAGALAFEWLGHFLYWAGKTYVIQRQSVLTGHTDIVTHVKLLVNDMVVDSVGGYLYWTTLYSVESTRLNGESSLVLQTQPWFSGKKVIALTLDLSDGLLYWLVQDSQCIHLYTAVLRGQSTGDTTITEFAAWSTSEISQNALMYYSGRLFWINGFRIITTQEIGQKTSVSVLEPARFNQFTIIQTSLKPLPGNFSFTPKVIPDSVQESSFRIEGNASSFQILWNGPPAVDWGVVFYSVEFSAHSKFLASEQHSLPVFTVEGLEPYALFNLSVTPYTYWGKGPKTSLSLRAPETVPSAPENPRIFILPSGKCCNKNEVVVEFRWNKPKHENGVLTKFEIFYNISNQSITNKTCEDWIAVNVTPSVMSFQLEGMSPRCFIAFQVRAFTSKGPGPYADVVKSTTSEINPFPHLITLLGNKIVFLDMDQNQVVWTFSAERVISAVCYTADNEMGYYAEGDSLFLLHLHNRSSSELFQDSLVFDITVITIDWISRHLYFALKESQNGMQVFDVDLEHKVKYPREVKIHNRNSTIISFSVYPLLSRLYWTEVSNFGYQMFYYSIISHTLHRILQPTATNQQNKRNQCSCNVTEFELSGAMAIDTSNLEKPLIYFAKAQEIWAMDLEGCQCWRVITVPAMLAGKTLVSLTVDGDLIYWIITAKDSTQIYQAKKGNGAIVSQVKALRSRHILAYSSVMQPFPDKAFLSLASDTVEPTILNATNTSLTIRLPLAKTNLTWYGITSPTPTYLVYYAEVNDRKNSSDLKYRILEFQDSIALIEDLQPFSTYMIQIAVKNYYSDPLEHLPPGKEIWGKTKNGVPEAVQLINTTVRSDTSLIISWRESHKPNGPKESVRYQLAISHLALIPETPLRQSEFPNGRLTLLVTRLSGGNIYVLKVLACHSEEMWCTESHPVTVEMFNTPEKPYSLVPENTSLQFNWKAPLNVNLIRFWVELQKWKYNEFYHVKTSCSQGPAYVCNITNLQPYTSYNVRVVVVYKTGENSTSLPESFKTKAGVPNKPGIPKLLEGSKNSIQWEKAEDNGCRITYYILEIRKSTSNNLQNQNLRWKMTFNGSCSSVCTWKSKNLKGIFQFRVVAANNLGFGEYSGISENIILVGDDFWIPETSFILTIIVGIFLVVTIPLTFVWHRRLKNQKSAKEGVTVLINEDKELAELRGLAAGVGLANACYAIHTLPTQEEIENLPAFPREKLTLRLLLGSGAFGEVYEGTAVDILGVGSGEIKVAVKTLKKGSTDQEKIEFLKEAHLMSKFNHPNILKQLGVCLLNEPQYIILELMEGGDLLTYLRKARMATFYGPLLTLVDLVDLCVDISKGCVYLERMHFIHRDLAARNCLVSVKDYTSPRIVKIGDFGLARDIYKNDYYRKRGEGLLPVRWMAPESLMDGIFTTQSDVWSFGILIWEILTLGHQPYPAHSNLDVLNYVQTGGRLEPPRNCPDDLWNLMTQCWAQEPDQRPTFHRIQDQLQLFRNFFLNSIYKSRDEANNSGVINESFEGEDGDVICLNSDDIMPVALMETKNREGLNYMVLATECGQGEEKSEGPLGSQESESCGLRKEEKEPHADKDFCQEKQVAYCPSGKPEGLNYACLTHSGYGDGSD
# [6] = target: Mitogen-activated protein kinase kinase kinase 8 (Homo sapiens) (UniProt P41279); experiment: Inhibition of human COT1 at 1.82 nM by HotSpot assay relative to control
# Mitogen-activated protein kinase kinase kinase 8 (Homo sapiens), sequence (P41279 whole entry): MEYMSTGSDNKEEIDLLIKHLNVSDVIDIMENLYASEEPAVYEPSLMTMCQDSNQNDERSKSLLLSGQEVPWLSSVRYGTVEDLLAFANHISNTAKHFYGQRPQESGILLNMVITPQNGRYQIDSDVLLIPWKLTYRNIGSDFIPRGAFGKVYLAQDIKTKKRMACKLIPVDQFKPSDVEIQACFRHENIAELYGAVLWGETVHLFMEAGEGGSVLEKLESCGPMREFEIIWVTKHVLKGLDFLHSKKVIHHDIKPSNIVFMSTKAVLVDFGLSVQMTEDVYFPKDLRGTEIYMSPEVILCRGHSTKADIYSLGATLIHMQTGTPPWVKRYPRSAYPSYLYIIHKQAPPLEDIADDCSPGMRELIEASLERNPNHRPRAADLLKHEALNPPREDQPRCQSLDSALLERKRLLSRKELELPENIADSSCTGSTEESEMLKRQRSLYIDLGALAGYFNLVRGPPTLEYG
# [7] = target: Dual specificity mitogen-activated protein kinase kinase 2 (Homo sapiens) (UniProt P36507); experiment: Inhibition of human MEK2 at 1.82 nM by HotSpot assay relative to control
# [8] = target: T3, Serine/threonine-protein kinase BRSK1 (Homo sapiens) (UniProt Q8TDC3); experiment: Inhibition of human BRSK1 at 1.82 nM by HotSpot assay relative to control
# T3 sequence (whole entry): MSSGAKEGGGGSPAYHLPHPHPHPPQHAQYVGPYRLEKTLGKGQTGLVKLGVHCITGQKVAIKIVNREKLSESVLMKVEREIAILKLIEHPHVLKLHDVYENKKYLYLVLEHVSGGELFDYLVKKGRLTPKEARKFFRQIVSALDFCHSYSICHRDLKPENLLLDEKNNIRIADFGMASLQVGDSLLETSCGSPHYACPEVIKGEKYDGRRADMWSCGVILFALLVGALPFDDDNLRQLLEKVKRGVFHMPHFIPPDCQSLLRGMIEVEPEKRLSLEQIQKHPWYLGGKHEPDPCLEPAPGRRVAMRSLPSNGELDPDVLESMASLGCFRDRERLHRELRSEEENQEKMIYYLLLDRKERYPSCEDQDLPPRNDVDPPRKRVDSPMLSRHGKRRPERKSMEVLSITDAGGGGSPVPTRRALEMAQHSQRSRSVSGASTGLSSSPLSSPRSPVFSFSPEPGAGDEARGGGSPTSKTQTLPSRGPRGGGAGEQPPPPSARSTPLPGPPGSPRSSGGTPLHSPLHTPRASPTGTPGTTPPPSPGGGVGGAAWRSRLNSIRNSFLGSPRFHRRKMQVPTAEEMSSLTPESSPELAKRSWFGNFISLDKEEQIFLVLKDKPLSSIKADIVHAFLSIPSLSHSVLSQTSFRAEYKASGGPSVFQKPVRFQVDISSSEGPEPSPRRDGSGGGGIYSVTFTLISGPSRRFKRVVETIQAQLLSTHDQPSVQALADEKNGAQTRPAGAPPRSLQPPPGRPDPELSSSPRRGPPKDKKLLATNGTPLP
# [9] = target: G protein-coupled receptor kinase 6 (Homo sapiens) (UniProt P43250); experiment: Inhibition of human GRK6 at 1.82 nM by HotSpot assay relative to control
# G protein-coupled receptor kinase 6 (Homo sapiens), sequence (P43250 whole entry, looked up): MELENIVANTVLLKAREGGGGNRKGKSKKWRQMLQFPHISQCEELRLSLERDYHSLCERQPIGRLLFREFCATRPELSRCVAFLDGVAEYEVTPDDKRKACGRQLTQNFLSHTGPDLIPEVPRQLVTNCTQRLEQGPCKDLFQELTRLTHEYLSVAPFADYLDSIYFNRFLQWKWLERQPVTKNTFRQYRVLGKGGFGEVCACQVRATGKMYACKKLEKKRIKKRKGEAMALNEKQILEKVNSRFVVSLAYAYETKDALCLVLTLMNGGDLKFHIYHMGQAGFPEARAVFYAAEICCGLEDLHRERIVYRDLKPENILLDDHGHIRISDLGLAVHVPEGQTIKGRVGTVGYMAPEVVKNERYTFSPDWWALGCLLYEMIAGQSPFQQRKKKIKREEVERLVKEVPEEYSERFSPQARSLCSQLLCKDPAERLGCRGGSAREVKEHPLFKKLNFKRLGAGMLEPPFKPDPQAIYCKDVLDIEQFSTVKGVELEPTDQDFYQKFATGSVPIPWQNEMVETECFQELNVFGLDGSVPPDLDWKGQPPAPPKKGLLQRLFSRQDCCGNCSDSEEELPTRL
# [10] = target: Non-receptor tyrosine-protein kinase TYK2 (Homo sapiens) (UniProt P29597); experiment: Inhibition of human TYK2 at 1.82 nM by HotSpot assay relative to control
# Protein kinase C beta type (Homo sapiens), sequence (P05771 2-671 limits assumed): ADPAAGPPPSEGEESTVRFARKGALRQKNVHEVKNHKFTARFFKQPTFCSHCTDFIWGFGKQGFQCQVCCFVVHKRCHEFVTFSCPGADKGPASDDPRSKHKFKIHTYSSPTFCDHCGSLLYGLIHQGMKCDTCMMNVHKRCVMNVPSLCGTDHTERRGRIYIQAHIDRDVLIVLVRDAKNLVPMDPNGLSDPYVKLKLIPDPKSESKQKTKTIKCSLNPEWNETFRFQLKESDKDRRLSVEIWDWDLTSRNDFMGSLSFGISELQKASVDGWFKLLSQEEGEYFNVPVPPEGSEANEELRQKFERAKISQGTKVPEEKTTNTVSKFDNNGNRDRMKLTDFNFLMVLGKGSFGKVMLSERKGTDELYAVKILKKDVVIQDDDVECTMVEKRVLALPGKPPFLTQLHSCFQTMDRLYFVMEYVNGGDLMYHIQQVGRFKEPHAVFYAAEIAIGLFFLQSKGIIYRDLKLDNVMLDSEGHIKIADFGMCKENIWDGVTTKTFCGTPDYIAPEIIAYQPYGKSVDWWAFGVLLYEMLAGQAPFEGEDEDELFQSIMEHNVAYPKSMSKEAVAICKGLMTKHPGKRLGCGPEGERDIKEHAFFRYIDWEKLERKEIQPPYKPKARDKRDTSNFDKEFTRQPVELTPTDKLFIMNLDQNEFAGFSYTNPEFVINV
# Fibroblast growth factor receptor 2 (Homo sapiens), sequence (P21802 22-821 limits assumed): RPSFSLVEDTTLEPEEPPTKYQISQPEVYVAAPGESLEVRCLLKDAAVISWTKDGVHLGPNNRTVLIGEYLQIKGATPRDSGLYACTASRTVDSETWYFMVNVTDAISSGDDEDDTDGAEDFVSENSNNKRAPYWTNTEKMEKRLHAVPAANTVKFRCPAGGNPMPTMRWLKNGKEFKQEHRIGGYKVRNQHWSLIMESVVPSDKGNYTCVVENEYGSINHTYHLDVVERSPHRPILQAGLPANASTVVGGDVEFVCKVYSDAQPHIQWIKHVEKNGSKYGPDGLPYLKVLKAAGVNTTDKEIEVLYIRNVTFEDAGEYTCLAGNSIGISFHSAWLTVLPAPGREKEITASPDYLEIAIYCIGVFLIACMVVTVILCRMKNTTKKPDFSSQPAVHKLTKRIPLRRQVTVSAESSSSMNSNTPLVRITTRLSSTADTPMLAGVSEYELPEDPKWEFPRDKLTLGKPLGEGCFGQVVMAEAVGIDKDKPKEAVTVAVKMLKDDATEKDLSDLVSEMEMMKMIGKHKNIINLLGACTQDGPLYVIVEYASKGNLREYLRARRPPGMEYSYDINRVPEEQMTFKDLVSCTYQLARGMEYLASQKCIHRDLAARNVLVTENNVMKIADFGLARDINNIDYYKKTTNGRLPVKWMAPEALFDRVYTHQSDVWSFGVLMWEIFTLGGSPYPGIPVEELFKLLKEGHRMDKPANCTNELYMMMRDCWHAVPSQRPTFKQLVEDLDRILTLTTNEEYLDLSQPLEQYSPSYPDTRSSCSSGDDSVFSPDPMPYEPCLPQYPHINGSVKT
inhibition [1],inhibition [2],inhibition [3],inhibition [4],inhibition [5],inhibition [6],inhibition [7],inhibition [8],inhibition [9],inhibition [10],Compound
-3.25%,-7.92%,10.8%,3.01%,-1.08%,–,–,–,–,–,C[C@]1(O)C[C@@H](c2nc(-c3ccc4ccc(-c5ccccc5)nc4c3)c3c(N)nccn32)C1
–,–,–,–,–,10.7%,1.78%,-0.42%,2.92%,1.02%,C[C@@]1(C(=O)Nc2ccc(F)nc2)CCCN1c1nc(Nc2cc(C3CC3)n[nH]2)c2cccn2n1
